Measured values taken from the NIST ThermoML archive (doi:10.1021/je050175u).
Numbers after ± are expanded uncertainties.

Test: excess molar enthalpy (molar enthalpy of mixing); xn = mol fraction of the nth substance listed
Settings: Liquid, Flow calorimetry

COC(C)=O [methyl ethanoate] + CCCCO
excess molar enthalpy [kJ/mol]
Settings	5000 kPa	10000 kPa
298.15 K, x1 = 0.05	0.325 ± 0.0071	0.322 ± 0.007
298.15 K, x1 = 0.1	0.607 ± 0.0088	0.604 ± 0.0087
298.15 K, x1 = 0.149	0.84 ± 0.011	0.835 ± 0.01
298.15 K, x1 = 0.199	1.04 ± 0.012	–
298.15 K, x1 = 0.201	–	1.04 ± 0.012
298.15 K, x1 = 0.249	1.2 ± 0.014	–
298.15 K, x1 = 0.251	–	1.21 ± 0.013
298.15 K, x1 = 0.3	1.34 ± 0.015	1.33 ± 0.015
298.15 K, x1 = 0.349	1.44 ± 0.016	–
298.15 K, x1 = 0.351	–	1.43 ± 0.015
298.15 K, x1 = 0.399	1.5 ± 0.016	–
298.15 K, x1 = 0.401	–	1.5 ± 0.016
298.15 K, x1 = 0.449	–	1.54 ± 0.016
298.15 K, x1 = 0.45	1.55 ± 0.017	–
298.15 K, x1 = 0.5	–	1.56 ± 0.017
298.15 K, x1 = 0.501	1.56 ± 0.017	–
298.15 K, x1 = 0.549	–	1.54 ± 0.016
298.15 K, x1 = 0.55	1.54 ± 0.017	–
298.15 K, x1 = 0.599	–	1.5 ± 0.016
298.15 K, x1 = 0.6	1.5 ± 0.016	–
298.15 K, x1 = 0.65	–	1.42 ± 0.015
298.15 K, x1 = 0.651	1.43 ± 0.015	–
298.15 K, x1 = 0.699	1.32 ± 0.014	–
298.15 K, x1 = 0.701	–	1.32 ± 0.014
298.15 K, x1 = 0.751	1.19 ± 0.013	1.19 ± 0.013
298.15 K, x1 = 0.8	–	1.02 ± 0.012
298.15 K, x1 = 0.801	1.02 ± 0.011	–
298.15 K, x1 = 0.851	0.813 ± 0.0091	0.818 ± 0.01
298.15 K, x1 = 0.899	0.589 ± 0.0069	0.591 ± 0.0086
298.15 K, x1 = 0.951	0.304 ± 0.004	0.304 ± 0.0068
308.15 K, x1 = 0.047	–	0.306 ± 0.0073
308.15 K, x1 = 0.098	–	0.616 ± 0.0092
308.15 K, x1 = 0.146	–	0.872 ± 0.011
308.15 K, x1 = 0.193	–	1.08 ± 0.012
308.15 K, x1 = 0.243	–	1.26 ± 0.014
308.15 K, x1 = 0.291	–	1.4 ± 0.015
308.15 K, x1 = 0.343	–	1.52 ± 0.016
308.15 K, x1 = 0.39	–	1.6 ± 0.017
308.15 K, x1 = 0.44	–	1.65 ± 0.018
308.15 K, x1 = 0.492	–	1.67 ± 0.018
308.15 K, x1 = 0.541	–	1.66 ± 0.018
308.15 K, x1 = 0.591	–	1.61 ± 0.017
308.15 K, x1 = 0.641	–	1.54 ± 0.017
308.15 K, x1 = 0.692	–	1.44 ± 0.016
308.15 K, x1 = 0.744	–	1.29 ± 0.014
308.15 K, x1 = 0.794	–	1.12 ± 0.013
308.15 K, x1 = 0.896	–	0.66 ± 0.0091
308.15 K, x1 = 0.947	–	0.353 ± 0.0077

COC(C)=O [methyl ethanoate] + CCCO
excess molar enthalpy [kJ/mol]
Settings	298.15 K	333.15 K
5000 kPa, x1 = 0.051	0.313 ± 0.0072	–
5000 kPa, x1 = 0.099	0.597 ± 0.0088	–
5000 kPa, x1 = 0.149	0.841 ± 0.011	–
5000 kPa, x1 = 0.199	1.04 ± 0.012	–
5000 kPa, x1 = 0.251	1.2 ± 0.014	–
5000 kPa, x1 = 0.3	1.32 ± 0.015	–
5000 kPa, x1 = 0.349	1.41 ± 0.015	–
5000 kPa, x1 = 0.4	1.48 ± 0.016	–
5000 kPa, x1 = 0.451	1.52 ± 0.016	–
5000 kPa, x1 = 0.501	1.52 ± 0.016	–
5000 kPa, x1 = 0.551	1.5 ± 0.016	–
5000 kPa, x1 = 0.6	1.45 ± 0.016	–
5000 kPa, x1 = 0.65	1.38 ± 0.015	–
5000 kPa, x1 = 0.701	1.28 ± 0.014	–
5000 kPa, x1 = 0.749	1.14 ± 0.013	–
5000 kPa, x1 = 0.8	0.987 ± 0.011	–
5000 kPa, x1 = 0.85	0.797 ± 0.009	–
5000 kPa, x1 = 0.899	0.571 ± 0.0067	–
5000 kPa, x1 = 0.951	0.298 ± 0.004	–
10000 kPa, x1 = 0.051	0.34 ± 0.0071	0.402 ± 0.0086
10000 kPa, x1 = 0.099	0.608 ± 0.0088	0.704 ± 0.0099
10000 kPa, x1 = 0.149	0.844 ± 0.01	–
10000 kPa, x1 = 0.15	–	0.972 ± 0.012
10000 kPa, x1 = 0.199	1.04 ± 0.012	–
10000 kPa, x1 = 0.2	–	1.2 ± 0.014
10000 kPa, x1 = 0.25	1.2 ± 0.013	1.38 ± 0.015
10000 kPa, x1 = 0.3	1.32 ± 0.014	1.52 ± 0.016
10000 kPa, x1 = 0.349	1.41 ± 0.015	–
10000 kPa, x1 = 0.35	–	1.63 ± 0.017
10000 kPa, x1 = 0.399	1.47 ± 0.016	1.71 ± 0.018
10000 kPa, x1 = 0.448	–	1.75 ± 0.018
10000 kPa, x1 = 0.45	1.51 ± 0.016	–
10000 kPa, x1 = 0.5	1.52 ± 0.016	1.77 ± 0.019
10000 kPa, x1 = 0.548	–	1.75 ± 0.018
10000 kPa, x1 = 0.55	1.5 ± 0.016	–
10000 kPa, x1 = 0.599	1.45 ± 0.015	1.7 ± 0.018
10000 kPa, x1 = 0.649	1.38 ± 0.015	–
10000 kPa, x1 = 0.65	–	1.61 ± 0.017
10000 kPa, x1 = 0.7	1.27 ± 0.014	1.48 ± 0.016
10000 kPa, x1 = 0.749	1.15 ± 0.013	–
10000 kPa, x1 = 0.751	–	1.32 ± 0.015
10000 kPa, x1 = 0.799	0.99 ± 0.011	–
10000 kPa, x1 = 0.801	–	1.13 ± 0.013
10000 kPa, x1 = 0.849	0.79 ± 0.0099	–
10000 kPa, x1 = 0.85	–	0.898 ± 0.011
10000 kPa, x1 = 0.899	0.565 ± 0.0083	0.627 ± 0.0094
10000 kPa, x1 = 0.949	–	0.314 ± 0.0076
10000 kPa, x1 = 0.951	0.286 ± 0.0066	–
